For data set [1], the system named is K1 culture-adapted P. falciparum strain. Briefly: Antiplasmodial evaluation, SYBR Green I fluorescence-based drug susceptibility test. The note with it: for EC50: Plasmodium falciparum, multi-resistant K1 strain of P. falciparum, 72 h incubation, three independent experiments, read-out: EC50 PfK1; for SI (selectivity index): from CC50 HepG2 and EC50 PfK1. The data set is classed as cell-based. As to the method:
[…]. Parasitemia was maintained daily between 1 and 3%. The P. falciparum drug susceptibility test was carried out by comparing quantities of DNA in treated and control cultures of parasite in human erythrocytes according to a SYBR Green I fluorescence-based method[19] using a 96-well fluorescence plate reader. Compounds previously dissolved in DMSO (final concentration less than 0.5% v/v) were incubated in a total assay volume of 200 μL (RPMI, 2% hematocrit and 0.4% parasitemia) for 72 h in a humidified atmosphere (10% O2 and 5% CO2) at 37 °C in 96-well flat bottom plates. Duplicate assays were performed for each sample. After incubation, plates were frozen at […] for 24 h. Then, the frozen plates were thawed for 1 h at 37 °C. Fifteen μL of each sample were transferred to 96-well flat bottom non-sterile black plates (Greiner Bio-one, Kremsmünster, Austria), already containing 15 μL of the SYBR Green I lysis buffer (2X SYBR Green I, 20 mM Tris base pH 7.5, 20 mM EDTA, 0.008% w/v saponin, 0.08% w/v Triton X-100). […] Plates were incubated for 15 min at 37 °C and then read on a TECAN Infinite F-200 spectrophotometer with excitation and emission wavelengths at 485 and 535 nm, respectively.

Data set [2] in a line: Cytotoxic evaluation, MTT assay. The format is cell-based. The note with it: HepG2 cells, human HepG2 cell line, three independent experiments. As to the method:
The HepG2 cell line was maintained at 37 °C, 5% CO2, at 90% humidity in […] supplemented with 10% fetal bovine serum, 1% L-glutamine (200 mM), and penicillin (100 U per mL)/streptomycin (100 μg mL^−1) (complete RPMI medium). The cytotoxicity of the tested molecules on the HepG2 (hepatocarcinoma cell line purchased from ATCC, ref HB-8065) cell line was assessed according to the method of Mosmann[20] with slight modifications. Briefly, 5 × 10^3 cells in 100 μL of complete medium were inoculated into each well of 96-well plates and incubated at 37 °C in humidified 5% CO2. After 24 h incubation, 100 μL of medium with various product concentrations dissolved in DMSO (final concentration less than 0.5% v/v) were added and the plates were incubated for 72 h at 37 °C. Triplicate assays were performed for each sample. Each plate was then microscopically examined for possible precipitate formation before the medium was aspirated from the wells. Next, 100 μL of MTT (3-(4,5-dimethyl-2-thiazolyl)-2,5-diphenyl-2H-tetrazolium bromide) solution (0.5 mg mL^−1 in medium without FBS) was added to each well. Cells were incubated for 2 h at 37 °C. After this time, the MTT solution was removed and DMSO (100 μL) was added to dissolve the resulting blue formazan crystals. Plates were shaken vigorously (700 rpm) for 10 min. The absorbance was measured at 570 nm with 630 nm as a reference wavelength using a BIO-TEK ELx808 Absorbance Microplate Reader (LabX, Midland, ON, Canada). DMSO was used as a blank and doxorubicin (purchased from Sigma Aldrich) as a positive control. Cell viability was calculated as a percentage of control (cells incubated without the compound). […] CC50 values to represent the mean value calculated from three independent experiments.

Structures are written as SMILES.

On to `CC(C)(C)Nc1nc2cc(Br)sc2c(=O)[nH]1` [Compound 1, 6-Bromo-2-(tert-butylamino)thieno[3,2-d]pyrimidin-4(3H)-one], for which, in data set [1], the 50% effective concentration (EC50) amounted to 43.2 ± 2.6 µM and the “SI (selectivity index)” value is given as 0.9. For the same molecule, the 50% cytotoxic concentration (CC50) at 72 h in data set [2] is 38.2 ± 3.5 µM.

As for `CC(C)(C)Nc1nc2cc(-c3ccc(N4CCCCC4)cc3)sc2c(=O)[nH]1` [Compound 4i, 2-tert-Butylamino-6-[4-(piperidin-1-yl)phenyl]thieno[3,2-d]pyrimidin-4(3H)-one], the EC50 in data set [1] was 4.1 ± 1.2 µM. Further, the CC50 at 72 h in data set [2] was more than 6.25 µM.

As for `CC(C)(C)Nc1nc2cc(-c3ccc(S(C)(=N)=O)cc3)sc2c(=O)[nH]1` (stereo not drawn) [Compound 4s, 2-tert-Butylamino-6-[4-(methylsulfonimidoyl)phenyl]thieno[3,2-d]pyrimidin-4(3H)-one], the melting point was 251 to 253 °C. In addition, in data set [1], the EC50 was more than 12.5 µM and the “SI (selectivity index)” value was less than 5.1. The molecule also had a 50% cytotoxic concentration (CC50) at 72 h in data set [2] of 63.3 ± 14.6 µM.

As to `CC(C)(C)Nc1nc2cc(-c3ccc(S(C)(=O)=O)cc3)sc2c(=O)[nH]1` [Compound 4k, 2-tert-Butylamino-6-[4-(methylsulfonyl)phenyl]thieno[3,2-d]pyrimidin-4(3H)-one], in data set [1], the EC50 came out at 3 ± 0.6 µM. For the same molecule, the half-maximal cytotoxic concentration (CC50) at 72 h in data set [2] was more than 25 µM.

On to `CC(C)Nc1nc2cc(C#Cc3ccccc3)sc2c(=O)[nH]1` [Compound 2h, 6-(phenylethynyl)-2-(propan-2-ylamino)thieno[3,2-d]pyrimidin-4(3H)-one], for which the melting point was 276 to 278 °C. In data set [1], the EC50 came to 2.8 ± 1 µM and the “SI (selectivity index)” value is on record as more than 4.5. This molecule came in with a CC50 at 72 h in data set [2] of more than 12.5 µM.

`CN1CCN(c2ncc(-c3cc4nc(NC(C)(C)C)[nH]c(=O)c4s3)cn2)CC1` [Compound 4o, 2-tert-Butylamino-6-[2-(4-methylpiperazin-1-yl)pyrimidin-5-yl]thieno[3,2-d]pyrimidin-4(3H)-one] yielded a melting point of 289 to 291 °C. Moreover, in data set [1], the EC50 stood at 4.4 ± 1 µM and the “SI (selectivity index)” value is on record as 2.5. In data set [2], the cytotoxic concentration (CC50) at 72 h was 11.2 ± 1.3 µM.

Regarding `CC(C)(C)Nc1nc2cc(-c3ccc(S(N)(=O)=O)cc3)sc2c(=O)[nH]1` [Compound 4l, 4-(2-tert-Butylamino-4-oxo-3,4-dihydrothieno[3,2-d]pyrimidin-6-yl)benzenesulfonamide], the melting point was more than 300 °C. Further, the EC50 in data set [1] is more than 12.5 µM. This molecule came in with a CC50 at 72 h in data set [2] of more than 6.25 µM.

Turning to `CC(C)(C)Nc1nc2cc(-c3ccc(N)cc3)sc2c(=O)[nH]1` [Compound 4p, 6-(4-aminophenyl)-2-tert-butylaminothieno[3,2-d]pyrimidin-4(3H)-one], the melting point lay within 259 to 261 °C. Moreover, in data set [1], the EC50 was found to be 3.5 ± 1.2 µM and the “SI (selectivity index)” value is 0.7. The same molecule had a CC50 at 72 h in data set [2] of 2.5 ± 1 µM.

Turning to `CC(C)Nc1nc2cc(-c3ccc(N)cc3)sc2c(=O)[nH]1` [Compound 4q, 6-(4-aminophenyl)-2-(propan-2-ylamino)thieno[3,2-d]pyrimidin-4(3H)-one], the EC50 in data set [1] was found to be 6 ± 1.1 µM. This molecule also displayed a CC50 at 72 h in data set [2] of 11.3 ± 3.5 µM.

`CC(C)(C)Nc1nc2cc(N3CCOCC3)sc2c(=O)[nH]1` [Compound 1f, 2-tert-Butylamino-6-(morpholin-4-yl)thieno[3,2-d]pyrimidin-4(3H)-one] yielded a melting point of 264 to 266 °C. In data set [1], the EC50 amounted to 4.5 ± 1.1 µM and the “SI (selectivity index)” value is reported as more than 11.1. Further, the CC50 at 72 h in data set [2] was more than 50 µM.

`CC(C)(C)Nc1nc2cc(-c3cnc(N4CCOCC4)nc3)sc2c(=O)[nH]1` [Compound 4n, 2-tert-Butylamino-6-[2-(morpholin-4-yl)pyrimidin-5-yl]thieno[3,2-d]pyrimidin-4(3H)-one] showed a melting point of more than 300 °C. Besides, in data set [1], the EC50 was 2.1 ± 0.6 µM and the “SI (selectivity index)” value is 12.6. This molecule showed a CC50 at 72 h in data set [2] of 26.4 ± 4.6 µM.

`CC(C)Nc1nc2cc(Br)sc2c(=O)[nH]1` [Compound 3, 6-Bromo-2-(propan-2-ylamino)thieno[3,2-d]pyrimidin-4(3H)-one] displayed a melting point of 240 to 242 °C. Also, in data set [1], the EC50 is more than 50 µM and the “SI (selectivity index)” value is less than 1.8. In addition, the CC50 at 72 h in data set [2] worked out at 89.1 ± 9.7 µM.

In the case of `CC(C)(C)Nc1nc2cc(-c3ccc(O)cc3)sc2c(=O)[nH]1` [Compound 4d, 2-(tert-butylamino)-6-(4-hydroxyphenyl)thieno[3,2-d]pyrimidin-4(3H)-one], the concentration for a half-maximal effect (EC50) in data set [1] was 7.5 ± 1 µM. Moreover, in data set [2], the midpoint of cytotoxicity, the CC50 at 72 h, lay at 12.2 ± 0.3 µM.

In the case of `COc1ccc(Nc2cc3nc(NC(C)(C)C)[nH]c(=O)c3s2)cc1` [Compound 1d, 2-tert-Butylamino-6-[(4-methoxyphenyl)amino]thieno[3,2-d]pyrimidin-4(3H)-one], the melting point fell in the range of 205 to 207 °C. Further, in data set [1], the EC50 worked out at 7.2 ± 2 µM and the “SI (selectivity index)” value turned out to be 3.3. This molecule gave a CC50 at 72 h in data set [2] of 24 ± 3.1 µM.

Turning to `CSc1ccc(-c2cc3nc(NC(C)(C)C)[nH]c(=O)c3s2)cc1` [Compound 4j, 2-tert-Butylamino-6-[4-(methylsulfanyl)phenyl]thieno[3,2-d]pyrimidin-4(3H)-one], the melting point lay within 272 to 274 °C. Also, in data set [1], the EC50 is 1 ± 0.3 µM and the “SI (selectivity index)” value is more than 12.5. The molecule also displayed a CC50 at 72 h in data set [2] of more than 12.5 µM.

`CC(C)Nc1nc2cc(-c3ccc(F)c(Cl)c3)sc2c(=O)[nH]1` [Compound 4f, 2-(Propan-2-ylamino)-6-(3-chloro-4-fluorophenyl)thieno[3,2-d]pyrimidin-4(3H)-one] yielded a melting point of more than 300 °C. Also, in data set [1], the EC50 came out at 3.6 ± 1.2 µM and the “SI (selectivity index)” value is reported as more than 1.7. This molecule also returned a CC50 at 72 h in data set [2] of more than 6.25 µM.

Take `C#Cc1cc2nc(NC(C)(C)C)[nH]c(=O)c2s1` [Compound 2f, 2-tert-Butylamino-6-ethynylthieno[3,2-d]pyrimidin-4(3H)-one]: in data set [1], the EC50 is more than 12.5 µM. Moreover, in data set [2], the CC50 at 72 h was 4.7 ± 1 µM.

In the case of `CN1CCN(c2ccc(-c3cc4nc(NC(C)(C)C)[nH]c(=O)c4s3)cc2)CC1` [Compound 4h, 2-tert-Butylamino-6-[4-(4-methylpiperazin-1-yl)phenyl]thieno[3,2-d]pyrimidin-4(3H)-one], in data set [1], the EC50 amounted to 4.1 ± 0.7 µM. The molecule also gave a CC50 at 72 h in data set [2] of 5.8 ± 0.5 µM.

As to `CC(C)(C)Nc1nc2cc(C#CCCO)sc2c(=O)[nH]1` [Compound 2d, 2-tert-Butylamino-6-(4-hydroxybut-1-yn-1-yl)thieno[3,2-d]pyrimidin-4(3H)-one], the EC50 in data set [1] was more than 10 µM. In data set [2], this molecule returned a CC50 at 72 h of more than 50 µM.

With `Cc1cccc(Nc2cc3nc(NC(C)(C)C)[nH]c(=O)c3s2)c1` [Compound 1b, 2-tert-Butylamino-6-[(3-methylphenyl)amino]thieno[3,2-d]pyrimidin-4(3H)-one], the half-maximal effective concentration (EC50) in data set [1] came out at 1.1 ± 0.3 µM. Also, half-maximal cytotoxicity in data set [2] (CC50 at 72 h) was put at 5.3 ± 0.4 µM.

As for `Cc1ccc(Nc2cc3nc(NC(C)(C)C)[nH]c(=O)c3s2)cc1` [Compound 1a, 2-tert-Butylamino-6-[(4-methylphenyl)amino]thieno[3,2-d]pyrimidin-4(3H)-one], the half-maximal effective concentration (EC50) in data set [1] came to 10.3 ± 0.2 µM. It took 21.7 ± 2.1 µM to reach half-maximal cytotoxicity in data set [2] (CC50 at 72 h).

As to `CC(C)(C)Nc1nc2cc(-c3ccc([N+](=O)[O-])cc3)sc2c(=O)[nH]1` [Compound 4b, 2-tert-Butylamino-6-(4-nitrophenyl)thieno[3,2-d]pyrimidin-4(3H)-one], the melting point was more than 300 °C.

For the molecule `Cc1ccccc1Nc1cc2nc(NC(C)(C)C)[nH]c(=O)c2s1` [Compound 1c, 2-tert-Butylamino-6-[(2-methylphenyl)amino]thieno[3,2-d]pyrimidin-4(3H)-one], the EC50 in data set [1] turned out to be 4.3 ± 0.2 µM. This molecule had a CC50 at 72 h in data set [2] of 14.1 ± 0.3 µM.

Turning to `CN1CCN(CC#Cc2cc3nc(NC(C)(C)C)[nH]c(=O)c3s2)CC1` [Compound 2g, 2-tert-Butylamino-6-[3-(4-methylpiperazin-1-yl)prop-1-yn-1-yl]thieno[3,2-d]pyrimidin-4(3H)-one], the EC50 in data set [1] was more than 5 µM. This molecule also registered a cytotoxic concentration (CC50) at 72 h in data set [2] of 41.6 ± 5.2 µM.

In general, EC50 refers to the midpoint of the concentration-response curve. The term CC50 denotes the concentration at which the toxic effect on the cells reaches its halfway point. What is called melting point is the temperature, or range, at which the solid turns liquid.

The record behind these values is PMC9264115, “Pd-catalyzed C–C and C–N cross-coupling reactions in 2-aminothieno[3,2-d]pyrimidin-4(3H)-one series for antiplasmodial pharmacomodulation” (RSC Advances, 2022).
